One block for each compound: values may come before it.
Legend:
[1] = tested on: ovariectomized female rats; experiment: SERM comparison, energy balance and lipid-lipoprotein metabolism (Example 10); assay type: in vivo, Rattus norvegicus; settings: OVX rats, 20 days
Method: For this purpose, tested compounds were administered by oral gavage for 20 days (0.5 mg/rat for each compound; 0.5 ml/rat) in 0.4% methylcellulose to ovariectomized female rats.
d) Diet: • During acclimation period, rats received a certified rodent diet (Lab Diet #5002, pellet) and tap water ad libitum while during study period, they received a high carbonhydrate diet (diet #3) and tap water ad libitum. The diet was composed of (g/100 g): Corn starch, 31.2; Dextrose, 31.2; Casein, 20.0; corn oil, 6.4; dl-Methionine, 0.3; Vitamine mix, 1.0; AIN-76 mineral mix, 4.9; fiber, 5.0. Rats were fasted (with access to water only) around 07 h00 the morning of their necropsy Randomization:
Test group: Seventy-seven rats were assigned to 8 groups of 9-10 rats for conduct of the study outlined below.
On day 0 of the study, rats from group 2 to 8 were ovariectomized (by bilateral flank incision) under Isoflurane anesthesia. Rats from group 1 were sham-operated.
Rats were weighed on day 0 (surgery) and then, every 2 days during study period as well as on the day of necropsy.
Food consumption was evaluated every 2 days.
In order to determine the effect of treatments on fat percentage, body composition was measured on Day 17 of the study using dual energy x-ray absorptiometry (DEXA; QDR 4500A, Hologic, Waltham, Mass.).
On day 21 of the study, approximately 24 hours after the last dosing and 6 hours of fasting, animals under Ketamine-Xylazine anesthesia were killed by exsanguination at the abdominal aorta.
Blood lipids (Total cholesterol and Triglycerides) and glucose were measured on frozen serum samples using the Boehringer Mannheim Diagnostic Hitachi 911 Analyzer (Boehringer Mannheim Diagnostic Laboratory Systems). Circulating hormones and substrates (Insulin and leptin) were measured on serum sample using the following kits: • Insulin: Linco RIA kit • Leptin: Linco RIA kit Organs and Tissues Collected
The following tissues were collected and weighed: • Muscle (right soleus and right VLM), fat (right retroperitoneal and right inguinal), and brown adipose tissue.
A piece of ˜0.1 g of all tissues (except uterus and vagina) were frozen in liquid nitrogen and kept at −80 C for later determination of lipoprotein-lipase (LPL) activity.

[2] = tested on: ovariectomized female rats; experiment: Uterine weight, fat and lipid, 20-day treatment (Example 13); assay type: in vivo, Rattus norvegicus; settings: 20 days
Method: The objective of this study was to compare the effect on uterine, weight, fat and blood lipids following treatment with EM-652.HCl, ERA-923 and lasofoxifene, administered alone or in combination with EM-652.HCl, to ovariectomized female rats. For this purpose, each compound was administered orally for 20 days to ovariectomized female rats and at the end of the treatment period, the uterus and fat were collected and weighed.
d) Diet: • Certified Rodent feed (Lab Diet #5002, pellets) and tap water were provided ad libitum. Randomization:
Seventy rats were separated into 7 groups of 9 to 11 animals for conduct of the study outlined below:
Animals from groups 2 to 9 were ovariectomized under Isoflurane-induced anesthesia on Day 7 of the study.
The vehicle or tested compounds were given as suspension in 0.4% methylcellulose by oral gavage (0.5 ml/gavage/rat) from Day 2 to Day 21 of the study.
Rats were weighed on Study Day 1 and at the necropsy (SD 22).
Approximately 24 hours after the last dosing, overnight fasted rats under Isoflurane-induced anesthesia were killed by exsanguination at the abdominal aorta.
Uteri and retroperitonal adipose tissue were removed and weighed.

[3] = tested on: human breast cancer MCF-7 cells; experiment: Proliferation of MCF-7 cell line, DNA content (Example 12); assay type: cell-based; settings: MCF-7 cells
Text: MCF-7 human breast cancer cells were obtained from the American Type Culture Collection # HTB 22 at passage 147 and routinely grown in phenol red-free Dulbecco's Modified Eagle's-Ham's F12 medium, the supplements mentioned above and 5% FBS. The MCF-7 human breast adenocarcinoma cell line was derived from the pleural effusion of a patient. MCF-7 cells were used between passages 148 and 165 and subcultured weekly.
Cells in their late logarithmic growth phase were harvested with 0.1% pancreatin (Sigma) and resuspended in the appropriate medium containing 50 ng bovine insulin/ml and 5% (v/v) FBS treated twice with dextran-coated charcoal to remove endogenous steroids. Cells were plated in 24-well Falcon plastic culture plates (2 cm2/well) at the indicated density and allowed to adhere to the surface of the plates for 72 h. […] Control cells received only the ethanolic vehicle (0.1% EtOH,v/v). Cells were incubated for the specified time intervals with medium changes at 2- or 3-day intervals. Cell number was determined by measurement of DNA content.
Dose-response curves as well IC50 values were calculated using a weighted iterative nonlinear least-squares regression. All results are expressed as means±SEM.

intact female rats = experiment: 6-month treatment, fat accumulation in intact female rats receiving or not LHRH-A (Example 5); assay type: in vivo, Rattus norvegicus; settings: 6-month LHRH-A treatment
Method: The objective of this study is to determine the effect on fat of treatment with EM-652.HCl and dehydroepiandrosterone (DHEA) in intact female rats receiving or not a luteinizing hormone releasing hormone agonist (LHRH-A, LHRH ethylamide diacetate). For this purpose, intact female rats, treated or not with LHRH-A (2 μg/rat), received daily administration of EM-652.HCl (2.5 mg/kg) and DHEA (100 mg/kg), alone or in combination, for 6 months. EM-652.HCl was administered orally, DHEA was applied topically while LHRH-A was injected subcutaneously. All treatments were administered once daily.
One hundred twenty rats were separated into 8 groups of 15 animals for conduct of the study outlined below:
The LHRH-A is available in solution at a concentration of 1.0 mg/ml. We diluted this concentrated solution (in order to obtain a final concentration of 0.004 mg/ml) by using the following vehicle: 0.3% Sodium Chloride and 0.25% Sodium Phosphate monobasic, monohydrate in water. The sodium hydroxide (aqueous) was used to adjust the pH between 5.6-6.2.
Dosing suspensions/solutions were prepared every two weeks according to the most recent body weight (group mean) except for the LHRH-A solution. For EM-652.HCl administered orally, the vehicle (0.4% methylcellulose) was added to the tested compound, previously weighed into a glass bottle, at least 48 hours prior to the first dosing day. To ensure the homogeneity of dosing suspension, it was stirred at least 48 hours at 2 to 8 C. Dosing suspension was kept at 2 to 8 C. For DHEA solution applied topically, the ethanol was added to DHEA and the mix were agitated until dissolution of DHEA. Then, the polypropylene glycol was added and the solution agitated until homogeneity. Dosing solution was kept at 2 to 8 C. For LHRH-A solution injected subcutaneously, a dilution of the concentrated solution using the appropriate vehicle was prepared every month. Dosing solution was kept at 2 to 8 C.
The administration of tested compounds or vehicle was given from on Study Day 1 of the protocol. The tested compounds were given as suspension in 0.4% methylcellulose by oral gavage (0.5 ml/gavage/rat) once daily or were applied topically in 50% ethanol-50% propylene glycol (0.5 ml/application/rat) once daily. Rats from groups 5 to 8 received also the LHRH-A once daily by subcutaneous injection (0.5 ml/injection/rat). Rats not receiving a tested compound orally and/or topically received the appropriate vehicle alone.
Body composition was measured on whole skeleton of animal under Isoflurane-induced anesthesia using dual energy x-ray absorptiometry (DEXA; QDR 4500A, Hologic) during the acclimation period and after 6 months of treatment.

[4] = high carbohydrate diet, 0.5 mg/rat oral gavage
[5] = OVX rats, commercial rodent diet, 0.5 mg oral, EM-652.HCl 2.5 mg in combinations

- effect on uterine weight compared to the OVX control animals [2]: no effect
- Uterine Weight [2, 5]: 162.6 ± 5.2 mg
- EC50 ([3]; Homo sapiens, MCF7, text summary of table 12, read-out: EC50 of inhibition (antiestrogen activity)): 3.7 nM
Compound: Cc1c(-c2ccc(O)cc2)n(Cc2ccc(OCCN3CCCCC3)cc2)c2ccc(O)cc12 [ERA-923]
- Serum insulin (in words) ([1]; 0.5 mg/rat): decreased
- Brown adipose tissue Lipoprotein lipase activity [1, 4]: 1017 ± 83 μU/g protein
- Brown adipose tissue weight [1, 4]: 0.350 ± 0.019 g
- Cumulative food intake [1, 4]: 347 ± 9 g
- Serum glucose [1, 4]: 16.5 ± 2.7 mmol/L
- Serum insulin [1, 4]: 0.113 ± 0.029 nmol/L
- Serum leptin [1, 4]: 2.12 ± 0.44 ng/mL
- Serum total cholesterol [1, 4]: 1.66 ± 0.16 mmol/L
- Serum triglycerides [1, 4]: 0.93 ± 0.24 mmol/L
- Soleus muscle Lipoprotein lipase activity [1, 4]: 11.7 ± 1.9 μU/g protein
- Soleus muscle weight [1, 4]: 0.100 ± 0.004 g
- Total weight [1, 4]: 260 ± 5 g
- VastusLateralis muscle weight [1, 4]: 0.993 ± 0.33 g
- White adipose tissue inguinal Lipoprotein lipase activity [1, 4]: 766 ± 173 μU/g protein
- White adipose tissue inguinal weight [1, 4]: 0.326 ± 0.042 g
- White adipose tissue retroperitoneal Lipoprotein lipase activity [1, 4]: 1750 ± 140 μU/g protein
- White adipose tissue retroperitoneal weight [1, 4]: 1.27 ± 0.15 g
- OVX-induced increase in total serum cholesterol levels ([2]; 0.5 mg): completely prevented
- prevention of body weight increase induced by ovariectomy ([2]; OVX rats, 0.5 mg): 59%
- Cholesterol [2, 5]: 1.20 ± 0.10 mmol/L
- Final Body Weight [2, 5]: 248 ± 5 g
- Stimulation of DNA by tested compounds % of 1 nM E2 stimulation ([3]; absence of E2): N.S.

Compound: LHRH ethylamide diacetate [LHRH-A]
- increase of the percentage of body fat (intact female rats): 58%
